What is called ED50 is the dose that gives a 50% effect, or the effect in half of the subjects. For orientation: LD50 means the dose at which mortality reaches 50%.

Here are results for 4 compounds from patent US4362736A, “Guanidinothiazole compounds, and medical compositions containing them” (Yamanouchi Pharmaceutical Co., Ltd., priority 1979, dated 1982).

In data set [1] the test system is Gastric acid secretion. Put plainly: Gastric acid secretion in pylorus-ligated rats. Format: in vivo, Male Wister rats. The following applies: Rattus norvegicus, intraduodenal, 4 hrs., probit method, read-out: (B) Pylorus-ligated rats ED50. On the procedure:
Male Wister rats weighing about 200 g were deprived of food for 24 hrs. but allowed free access to water prior to the experiments in individual cages. […] Test compounds were intraduodenally given immediately after the ligation of pylorus. The animals were sacrificed 4 hrs. after drug administration and gastric contents were collected. […] The percent inhibition of gastric secretion by each dose of drugs was calculated from the acid outputs of control and of treated groups. ED50 values were determined by the probit method.

The test system of data set [2] is Gastric acid secretion. Put plainly: Gastric acid secretion in anesthetized dogs (histamine-induced). It is filed as in vivo, Mongrel dogs. The following applies: Canis lupus familiaris, iv, histamine infusion 160 μg/Kg-hr, dose producing 50% inhibition of acid output. On the procedure: Mongrel dogs weighing 8 to 15 Kg were deprived of food for 24 hrs. and anesthetized intravenously with pentobarbital (30 mg/Kg). […] The gastric juice was collected from the gastric cannula by gravity drainage every 15 min. Test compounds were given intravenously after gastric secretion induced by a continuous intravenous infusion of histamine (160 μg/Kg-hr) reached a steady state.

A short description of a further data set: Acute toxicity in mice. The settings on record: mouse, in vivo, iv, 7 days observation, up and down method; read-out: (C) LD50 in mice. On the procedure: Drugs were injected intravenously in male ICR mice weighing about 35 g at a rate of 0.1 ml/10 g/10 sec and the animals were kept under observation for 7 days. LD50 values were determined by the up and down method using 10 animals. The data are shown in Table I, under column entitled (C).

For another data set, the system named is H2 -receptor. The settings on record: Ash and Schild; Black et al.; cited from earlier work.

Molecules are shown by their SMILES. Structures can show the parent of a compound that is named as a salt.

As for `N#CNC(=N)CCSCc1csc(NC(=N)N)n1` [Example 3, N-cyano-3-[(2-guanidinothiazol-4-yl)methylthio]propionamidine], the 50% effective dose (ED50) in the data set with Gastric acid secretion [1] was 13.8 mg/kg; with Gastric acid secretion [2] it was 0.0183 ± 0.0007 mg/kg. Also, the LD50 at 168 h in “Acute toxicity in mice” came to 147 mg/kg.
Taken in the same sequence, the figures for `NC(=O)N=C(N)CCSCc1csc(N=C(N)N)n1` [Example 9, N-carbamoyl-3-[(2-guanidinothiazol-4-yl)methylthio]propionamidine.di-hydrochloride] were 12.7 mg/kg, 0.0064 ± 0.0006 mg/kg and 97.8 mg/kg.
For `COc1ccc(CN(CCN(C)C)c2ccccn2)cc1` [mepyramine], the “inhibition of histamine effects on gastric acid secretion and heart rate in isolated guinea pig atrium” value with H2 -receptor was “not inhibited”.
In the case of `C/N=C(\S)NCCSCc1[nH]cnc1C` [metiamide], the “inhibition of histamine effects on gastric acid secretion and heart rate in isolated guinea pig atrium” value with H2 -receptor is recorded as “antagonized”.
